Results from US6632794B1, “Insulin-like growth factor agonist molecules” (Genentech, Inc., priority 1997, dated 2003).
Like-named read-outs stand apart in the source and are kept apart here. Positions of bridges follow the written chain, without caps; N, C: chain ends. Residues, ends and D or L forms follow the SMILES beside them.

Biological target: IGFBP-3 (Homo sapiens, UniProt P17936)
Assay: BIAcore competition assay, IGFBP-3 binding to immobilized IGF-I
Settings: for IGF-I Inhibition IC50 (mut)/IC50 (wt): bp3-01-ox variants by BIAcore, wt = bp3-01-ox
Description: A. BIAcore™ Competition Assay (for IGFBP-3 Binders)
IGF-I was immobilized on a dextran chip for inhibition assays using a BIAcore™ 2000 surface-plasmon-resonance device (BIAcore, Inc., Piscataway, N.J.) to measure free binding protein. […] Serial dilutions of peptide were mixed with a constant concentration (40 nM) of IGFBP-3. After incubation for >1 hour at room temperature, an aliquot of 20 μL was injected at a flow rate of 20 μL/min over the IGF-I chip. Following the injection, a response reading was taken to measure the relative amount of IGFBP-3 bound to the IGF-I.

[1] = 40 nM IGFBP-3, 400 to 800 RU immobilized IGF-I, read-out: BIAcore Assay IC50, inhibition of IGF-I binding to IGFBP-3
[2] = bp3-01-ox variants by BIAcore competition assay, read-out: IGF-I Inhibition IC50

Chain of IGFBP-3 (P17936 28-291): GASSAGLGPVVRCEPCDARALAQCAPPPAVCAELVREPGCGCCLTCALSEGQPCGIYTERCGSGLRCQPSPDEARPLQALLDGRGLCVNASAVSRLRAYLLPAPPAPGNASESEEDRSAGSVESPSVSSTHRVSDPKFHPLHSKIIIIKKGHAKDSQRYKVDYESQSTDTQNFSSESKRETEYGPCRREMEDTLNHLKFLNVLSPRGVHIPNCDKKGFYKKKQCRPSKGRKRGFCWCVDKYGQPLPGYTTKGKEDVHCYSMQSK

Row | IC50 [1] | IC50 [2] | IGF-I Inhibition IC50 (mut)/IC50 (wt) | Compound | further results
1 | 80 µM |  |  | CC[C@H](C)[C@@H]1NC(=O)[C@H](C(C)C)NC(=O)[C@H](Cc2ccc(O)cc2)NC(=O)CNC(=O)[C@@H]2CCCN2C(=O)CNC(=O)[C@H](CCC(=O)O)NC(=O)[C@H](Cc2ccccc2)NC(=O)[C@@H](NC(=O)[C@H](CCC(=O)O)NC(=O)[C@H](CO)NC(=O)[C@H](CCC(=O)O)NC(=O)[C@@H](N)CCC(=O)O)CSSC[C@@H](C(=O)NCC(=O)N[C@@H](CC(C)C)C(=O)N[C@H](C(=O)NCC(=O)O)C(C)C)NC1=O [BP3-4B3.3] (H-EESECFEGPGYVICGLVG-OH; disulfide 5-14; N-terminus and C-terminus assumed) | 
2 | 220 µM |  |  | CC[C@H](C)[C@@H]1NC(=O)[C@@H](NC(=O)[C@@H](NC(=O)[C@H](Cc2c[nH]c3ccccc23)NC(=O)CNC(=O)[C@H](CC(=O)O)NC(=O)[C@H](CC(C)C)NC(=O)[C@@H](N)CCC(=O)O)C(C)C)CSSC[C@@H](C(=O)N[C@@H](Cc2ccc(O)cc2)C(=O)N[C@@H](CC(C)C)C(=O)N[C@@H](C)C(=O)N[C@@H](CCC(=O)O)C(=O)NCC(N)=O)NC(=O)[C@H](CC(C)C)NC(=O)[C@H](CC(N)=O)NC(=O)[C@H](CCC(N)=O)NC(=O)[C@H](CCC(=O)O)NC(=O)CNC(=O)[C@H](C(C)C)NC(=O)[C@H](CCCCN)NC1=O [BP3-23] (H-ELDGWVCIKVGEQNLCYLAEG-NH2; disulfide 7-16; N-terminus assumed) | 
3 | 100 to 300 µM |  |  | CC(C)C[C@H](NC(=O)[C@@H](NC(=O)[C@H](Cc1ccc(O)cc1)NC(=O)[C@@H]1CSSC[C@H](NC(=O)[C@@H](NC(=O)[C@@H](NC(=O)[C@H](CCCCN)NC(=O)[C@H](Cc2ccccc2)NC(=O)[C@@H](N)Cc2c[nH]c3ccccc23)[C@@H](C)O)C(C)C)C(=O)N[C@@H](Cc2ccc(O)cc2)C(=O)N[C@@H](CCC(=O)O)C(=O)N[C@@H](Cc2c[nH]c3ccccc23)C(=O)N[C@@H](CCC(=O)O)C(=O)N[C@@H](CC(=O)O)C(=O)N[C@@H](CCC(=O)O)C(=O)N[C@@H](C(C)C)C(=O)N[C@@H](CCC(N)=O)C(=O)N1)[C@@H](C)O)C(=O)N[C@@H](CCC(=O)O)C(=O)N[C@@H](CCC(=O)O)C(=O)NCC(N)=O [BP3-24] (H-WFKTVCYEWEDEVQCYTLEEG-NH2; disulfide 6-15) | 
4 | > 1000 µM |  |  | CC[C@H](C)[C@H](NC(=O)[C@H](Cc1ccc(O)cc1)NC(=O)[C@H](C)NC(=O)CNC(=O)[C@@H](NC(=O)[C@@H](N)CCCNC(=N)N)C(C)C)C(=O)N[C@@H](CO)C(=O)N[C@H]1CSSC[C@@H](C(=O)N[C@@H](Cc2c[nH]c3ccccc23)C(=O)N[C@H](C(=O)N[C@@H](CCC(=O)O)C(=O)N[C@@H](CC(=O)O)C(=O)N[C@@H](CC(C)C)C(=O)N[C@@H](CC(C)C)C(=O)N[C@@H](CC(=O)O)C(=O)NCC(N)=O)C(C)C)NC(=O)[C@H](CCC(=O)O)NC(=O)[C@H]([C@@H](C)O)NC(=O)[C@H](CCC(=O)O)NC(=O)[C@H](CO)NC1=O [BP3-25] (H-RVGAYISCSETECWVEDLLDG-NH2; disulfide 8-13) | 
5 |  |  |  | CSCC[C@H](NC(=O)[C@@H]1CSSC[C@H](NC(=O)[C@H](CC(=O)O)NC(=O)[C@@H](NC(=O)CNC(=O)[C@@H](N)[C@@H](C)O)C(C)C)C(=O)N[C@@H](CCC(N)=O)C(=O)N[C@H]2CSSC[C@H](NC(=O)[C@H](Cc3c[nH]cn3)NC(=O)[C@H](C(C)C)NC(=O)[C@@H]3CCCN3C(=O)CNC2=O)C(=O)N[C@@H](C(C)C)C(=O)N1)C(=O)N[C@@H](CC(=O)O)C(=O)N[C@@H](Cc1c[nH]c2ccccc12)C(=O)N[C@@H](C)C(=O)O [BP06, TGVDCQC*GPVHC*VCMDWA] (H-TGVDCQCGPVHCVCMDWA-OH; disulfide 5-14, 7-12; N-terminus and C-terminus assumed) | IC50: 5 µM
6 |  |  |  | CSCC[C@@H]1NC(=O)[C@H](Cc2ccc(O)cc2)NC(=O)[C@@H]2CSSC[C@H](NC(=O)[C@H](CC(C)C)NC(=O)[C@@H]3CCCN3C1=O)C(=O)N[C@@H](CC(C)C)C(=O)N[C@H](C(=O)N[C@@H](Cc1ccc(O)cc1)C(=O)N[C@@H](CC(=O)O)C(=O)N[C@@H](CO)C(=O)N[C@@H](CC(=O)O)C(=O)O)CSSC[C@H](NC(=O)[C@H](CC(N)=O)NC(=O)[C@H](C)NC(=O)[C@@H](NC(=O)[C@@H](N)[C@@H](C)O)C(C)C)C(=O)N[C@@H](CC(=O)O)C(=O)N2 [BP08, TVANCDC*YMPLC*LCYDSD] (H-TVANCDCYMPLCLCYDSD-OH; disulfide 5-14, 7-12; N-terminus and C-terminus assumed) | IC50: 15 µM
7 | > 1000 µM |  |  | CC[C@H](C)[C@@H]1NC(=O)[C@H](Cc2ccc(O)cc2)NC(=O)CNC(=O)[C@H](CCC(N)=O)NC(=O)[C@H](CC(=O)O)NC(=O)[C@H](Cc2c[nH]cn2)NC(=O)[C@H](CCCNC(=N)N)NC(=O)[C@H](CC(=O)O)NC(=O)[C@H](Cc2c[nH]c3ccccc23)NC(=O)[C@@H](N)CSSC[C@@H](C(=O)N[C@H](C(=O)N[C@H](C(=O)N[C@@H](CC(=O)O)C(=O)N[C@@H](CO)C(=O)O)[C@@H](C)O)[C@@H](C)O)NC1=O [BP13] (H-CWDRHDQGYICTTDS-OH; disulfide 1-11) | 
8 |  | 2.8 µM | 1.4 | CC(C)C[C@@H]1NC(=O)[C@H](Cc2ccc(O)cc2)NC(=O)[C@H](Cc2c[nH]c3ccccc23)NC(=O)[C@H](CCC(=O)O)NC(=O)[C@H](C)NC(=O)[C@H](C(C)C)NC(=O)[C@@H]2CCCN2C(=O)[C@H](Cc2c[nH]c3ccccc23)NC(=O)[C@@H](NC(=O)[C@@H](NC(=O)[C@@H](N)CCC(=O)O)C(C)C)CSSC[C@@H](C(=O)N[C@@H](CC(N)=O)C(=O)O)NC1=O [bp3-27] (H-EVCWPVAEWYLCN-OH; disulfide 3-12; N-terminus and C-terminus assumed) | 
9 |  | 5.4 µM | 2.7 | CC(C)C[C@@H]1NC(=O)[C@H](Cc2ccc(O)cc2)NC(=O)[C@H](Cc2c[nH]c3ccccc23)NC(=O)[C@H](CCC(=O)O)NC(=O)[C@H](C)NC(=O)[C@H](C(C)C)NC(=O)[C@@H]2CCCN2C(=O)[C@H](Cc2c[nH]c3ccccc23)NC(=O)[C@@H](NC(=O)[C@@H](NC(=O)[C@H](CCC(=O)O)NC(=O)[C@@H](N)CCC(=O)O)C(C)C)CSSC[C@@H](C(=O)N[C@@H](CC(N)=O)C(=O)O)NC1=O [bp3-28] (H-EEVCWPVAEWYLCN-OH; disulfide 4-13 (inferred); N-terminus and C-terminus assumed) | 
10 |  | 5.6 µM | 2.8 | CC(C)C[C@@H]1NC(=O)[C@H](Cc2ccc(O)cc2)NC(=O)[C@H](Cc2c[nH]c3ccccc23)NC(=O)[C@H](CCC(=O)O)NC(=O)[C@H](C)NC(=O)[C@H](C(C)C)NC(=O)[C@@H]2CCCN2C(=O)[C@H](Cc2c[nH]c3ccccc23)NC(=O)[C@@H](NC(=O)[C@@H](NC(=O)[C@H](CCC(=O)O)NC(=O)[C@H](CCC(=O)O)NC(=O)[C@H](CO)NC(=O)[C@H](C)N)C(C)C)CSSC[C@@H](C(=O)N[C@@H](CC(N)=O)C(=O)O)NC1=O [bp3-30] (H-ASEEVCWPVAEWYLCN-OH; disulfide 6-15; N-terminus and C-terminus assumed) | 
11 |  | 0.66 µM | 0.33 | CC(C)C[C@@H]1NC(=O)[C@H](Cc2ccc(O)cc2)NC(=O)[C@H](Cc2c[nH]c3ccccc23)NC(=O)[C@H](CCC(=O)O)NC(=O)[C@H](C)NC(=O)[C@H](C(C)C)NC(=O)[C@@H]2CCCN2C(=O)[C@H](Cc2c[nH]c3ccccc23)NC(=O)[C@@H](NC(=O)[C@@H](NC(=O)[C@H](CCC(=O)O)NC(=O)[C@H](CCC(=O)O)NC(=O)[C@@H](N)CO)C(C)C)CSSC[C@@H](C(=O)N[C@@H](CC(N)=O)C(N)=O)NC1=O [bp3-39] (H-SEEVCWPVAEWYLCN-NH2; disulfide 5-14 (inferred); N-terminus assumed) | 
